ChEMBL document CHEMBL2177019, “Carbamate derivatives of indolines as cholinesterase inhibitors and antioxidants for the treatment of Alzheimer's disease” (J Med Chem, 2012)
Calls of active or inactive are those of the source. No cut-off for these calls is given here.

How the values were obtained:
H9c2 [1] = assay: Prevention of apoptosis in rat H9c2 cells assessed as protection against oxidative stress-induced cytotoxicity at 100 nM […] by Alamar blue assay; format: functional
Butyrylcholinesterase = Butyrylcholinesterase (Equus caballus, UniProt Q9N1N9); assay: Inhibition of equine BuChE after 120 mins by Ellman's method
[2] = Selectivity ratio of IC50 for equine BuChE to IC50 for bovine AChE
Acetylcholinesterase = target: T1, Acetylcholinesterase (Bos taurus, UniProt P23795); assay: Inhibition of bovine AChE after 120 mins by Ellman's method
T1 sequence (P23795 whole entry): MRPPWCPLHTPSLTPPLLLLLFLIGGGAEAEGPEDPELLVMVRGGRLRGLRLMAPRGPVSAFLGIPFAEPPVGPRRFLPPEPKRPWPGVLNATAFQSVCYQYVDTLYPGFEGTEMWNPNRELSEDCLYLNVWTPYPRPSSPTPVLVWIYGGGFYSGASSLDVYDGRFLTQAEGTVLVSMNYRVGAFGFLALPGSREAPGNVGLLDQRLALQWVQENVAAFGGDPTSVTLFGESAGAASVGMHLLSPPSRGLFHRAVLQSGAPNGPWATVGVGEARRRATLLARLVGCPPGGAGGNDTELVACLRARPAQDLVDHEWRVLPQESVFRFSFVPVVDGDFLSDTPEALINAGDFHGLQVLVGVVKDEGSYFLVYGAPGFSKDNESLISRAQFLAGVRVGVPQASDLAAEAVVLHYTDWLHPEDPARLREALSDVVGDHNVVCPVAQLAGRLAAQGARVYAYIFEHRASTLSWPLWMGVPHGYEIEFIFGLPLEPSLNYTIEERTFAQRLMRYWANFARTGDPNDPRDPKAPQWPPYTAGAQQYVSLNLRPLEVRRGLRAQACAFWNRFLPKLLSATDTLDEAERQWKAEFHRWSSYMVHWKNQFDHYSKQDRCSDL

[3] = Antioxidant activity assessed as scavenging of glucose oxidase-generated H2O2 and hydroxyl radicals by chemiluminescence assay; format: functional
[4] = Cytotoxicity against rat H9c2 cells assessed as cell viability in absence of H2O2; format: cell-based; set-up: concentration or dose not given beside the values; conditions: read-out: Activity
[5] = Antioxidant activity of the compound assessed as DHR radical scavenging activity at 10 uM by fluorescence assay; format: functional
Gallus gallus [6] = species on record: Gallus gallus; assay: Prevention of apoptosis in chick primary telencephalon neurons assessed as protection against serum deprivation-induced cytotoxicity at 1 to 10 uM by MTT assay; format: functional
Gallus gallus [7] = species on record: Gallus gallus; assay: Prevention of apoptosis in chick primary telencephalon neurons assessed as protection against serum deprivation-induced oxidative stress at 10 nM measured on day 8 by MTT assay; format: functional
[8] = Antioxidant activity assessed as scavenging of morpholino sydononimine based nitric oxide release by chemiluminescence assay; format: functional
[9] = test system: Radical scavenging activity; assay: Antioxidant activity of the compound assessed as DPPH radical scavenging at 10 uM after 30 secs by spectrophotometry; format: functional
[10] = Antioxidant activity of the compound assessed as scavenging of hydroxyl radical by chemiluminometric method; format: functional
[11] = Antioxidant activity of the compound assessed as scavenging of peroxynitrite by chemiluminometric method; format: functional
H9c2 [12] = assay: Prevention of apoptosis in rat H9c2 cells assessed as reduction in fall of mitochondrial membrane potential at 100 nM after 1 hr; format: functional; set-up: scale not given: the % may be the effect or the level left
Liver microsomes = assay: Metabolic stability in human liver microsomes; format: ADME, Microsome
[13] = Chemical stability in MeCN/water solution used as 0.5 mg/mL solution at -20 degC; format: physicochemical; conditions: buffer
[14] = Chemical stability in MeCN/water solution used as 50 mg/mL solution at -20 degC; format: physicochemical; conditions: buffer
Liver = assay: Metabolic stability in mouse liver microsomes; format: ADME, Microsome
[15] = Chemical stability in MeCN/water solution used as 100 mg/mL solution at room temperature; format: physicochemical; conditions: buffer
H9c2 [16] = assay: Prevention of apoptosis in rat H9c2 cardiomyocytes assessed as protection against oxidative stress-induced cytotoxicity at 1 pM to 1 nM after 1 hr by Alamar blue assay; format: functional

Sequence of Butyrylcholinesterase (Q9N1N9 whole entry): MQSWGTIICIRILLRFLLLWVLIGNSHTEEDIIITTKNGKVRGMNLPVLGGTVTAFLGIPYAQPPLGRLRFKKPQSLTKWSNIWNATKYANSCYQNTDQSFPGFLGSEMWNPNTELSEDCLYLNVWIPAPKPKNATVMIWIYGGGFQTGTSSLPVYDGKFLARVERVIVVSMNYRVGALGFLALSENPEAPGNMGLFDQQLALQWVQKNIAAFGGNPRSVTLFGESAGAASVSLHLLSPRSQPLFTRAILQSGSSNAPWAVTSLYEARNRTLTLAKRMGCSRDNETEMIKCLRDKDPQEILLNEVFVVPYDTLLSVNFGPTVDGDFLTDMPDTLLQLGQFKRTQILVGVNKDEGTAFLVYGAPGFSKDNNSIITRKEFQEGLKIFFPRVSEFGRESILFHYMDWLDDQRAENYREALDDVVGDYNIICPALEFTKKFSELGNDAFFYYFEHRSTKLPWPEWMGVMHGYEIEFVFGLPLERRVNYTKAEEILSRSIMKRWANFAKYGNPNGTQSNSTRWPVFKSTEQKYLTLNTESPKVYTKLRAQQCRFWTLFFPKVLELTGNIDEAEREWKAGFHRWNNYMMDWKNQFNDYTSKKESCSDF

| SMILES | Activity (H9c2 [1]) | IC50 (Butyrylcholinesterase) [µM] | Ratio IC50 [2] | IC50 (Acetylcholinesterase) [µM] | IC50 [3] [µM] | viability [4] [%] | IC50 [8] [µM] | other results |
| --- | --- | --- | --- | --- | --- | --- | --- | --- |
| CCN(C)C(=O)Oc1cccc2c1C(CCC(=O)OC)CN2C (stereo not given) | inactive | 6.8 | 0.11 | 58.7 | 3.13 | 97.3 | – | – |
| O=C(O)CCC1CNc2cccc(O)c21 (stereo not given) | – | – | – | – | 1.44 | – | – | Activity [5]: 19.1% |
| COC(=O)CCC1CNc2cccc(O)c21.Cl (stereo not given) | 57.3% | – | – | – | 0.67 | 121 | 0.25 | Activity (Gallus gallus [6]): Active; Activity [5]: 10.6%; Activity (Gallus gallus [7]): Active; Activity [9]: 32.4% |
| CCOC(=O)CCC1CNc2cccc(OC(=O)N(C)CC)c21 (stereo not given) | – | 0.56 | – | 40.2 | – | – | – | – |
| CCN(C)C(=O)Oc1cccc2c1CCN2CCC(=O)OC | – | 0.7 | – | – | 0.3 | – | 8.49 | Activity [9]: 27.8% |
| COc1ccc(N(C)C(=O)Oc2cccc3c2C(CCC(=O)O)CN3C)cc1 (stereo not given) | inactive | > 600 | > 4.8 | 125 | 10.2 | 101 | – | – |
| CCN(C)C(=O)Oc1ccc2c(c1)N(C)CC2 | – | 58.7 | 0.14 | 418 | 1.15 | – | – | – |
| COC(=O)CCC1CN(C)c2cc(OC(=O)N(C)c3ccc(OC)cc3)ccc21.Cl (stereo not given) | 33.3% | 372 | – | 17.4 | 2.24 | 106 | – | – |
| CCN(C)C(=O)Oc1cccc2c1CCN2.Cl | 35.3% | 0.7 | 0.1 | 7.2 | 1.38 | – | 0.57 | Activity (Gallus gallus [6]): Active; Activity (Gallus gallus [7]): Active; Activity [9]: 15% |
| COC(=O)CCC1CN(C)c2cccc(O)c21 (stereo not given) | – | – | – | – | 0.45 | – | – | Activity [5]: 15.4% |
| COc1ccc2[nH]cc(CCNC(C)=O)c2c1 [MELATONIN] | – | – | – | – | 95.8 | – | 1020 | IC50 [10]: 537 µM; IC50 [11]: 127 µM |
| COC(=O)CCC1CNc2cccc(OC(=O)N(C)c3ccc(OC)cc3)c21.Cl (stereo not given) | 43.1% | 4.6 | 3.8 | 1.2 | 19 | 84.7 | 3.18 | Activity [9]: 30.4% |
| CCN(C)C(=O)Oc1ccc2c(c1)NCC2CCC(=O)OC.Cl (stereo not given) | 58.5% | 3.9 | – | 55.2 | 1.45 | 100 | 2.36 | Activity (H9c2 [12]): 77% |
| CCN(C)C(=O)Oc1cccc2c1C(CCC(N)=O)CN2.Cl (stereo not given) | 55.2% | 8.5 | 0.14 | 62 | 2.39 | 96 | – | – |
| CCCCN(C)C(=O)Oc1ccc2c(CCC(=O)OC)c[nH]c2c1 | 28.8% | – | – | – | – | – | – | Activity (H9c2 [12]): 56% |
| CCN(C)C(=O)Oc1cccc2c1NCC2CCC(=O)OC (stereo not given) | – | 0.008 | 0.00012 | 61.6 | – | – | – | – |
| O=c1c(O)c(-c2ccc(O)c(O)c2)oc2cc(O)cc(O)c12 [QUERCETIN] | 45.1% | – | – | – | 0.06 | – | 0.61 | Activity [5]: 33.6%; Activity [9]: 19.2% |
| O=C(O)CCC1CNc2cc(O)ccc21 (stereo not given) | inactive | – | – | – | 2.34 | – | 1.34 | Activity [5]: 41.9% |
| CCN(C)C(=O)Oc1cccc2[nH]cc(CCC(=O)OC)c12 | – | 9.5 | 0.48 | 19.6 | – | – | – | – |
| CCN(C)C(=O)Oc1ccc2c(c1)NCC2CCC(=O)OC.O=C(O)CC(O)(CC(=O)O)C(=O)O (stereo not given) | – | – | – | – | – | – | – | Stability (Liver microsomes): Unstable; Stability [13]: Stable; Stability [14]: Stable; Stability (Liver): Unstable; Stability [15]: Unstable |
| COC(=O)CCc1c[nH]c2cc(OC(=O)N(C)c3ccc(OC)cc3)ccc12 | 43.1% | – | – | > 600 | – | – | – | Activity (H9c2 [12]): 48.2% |
| CCN(C)C(=O)Oc1cccc2c1C(CCC(=O)O)CN2C.Cl (stereo not given) | 57.4% | 9.7 | 0.078 | 124 | 1.64 | 106 | – | Activity (H9c2 [16]): 43% |
